Results published in patent US9382197B2, “Substituted hydroxamic acids and uses thereof” (Millennium Pharmaceuticals, Inc., priority 2010, dated 2016).

Target: T1, purified human HDAC6 (Homo sapiens, UniProt Q9UBN7)
T1 construct: purchased BPS Bioscience 5006
T1 sequence (Q9UBN7 1-1215): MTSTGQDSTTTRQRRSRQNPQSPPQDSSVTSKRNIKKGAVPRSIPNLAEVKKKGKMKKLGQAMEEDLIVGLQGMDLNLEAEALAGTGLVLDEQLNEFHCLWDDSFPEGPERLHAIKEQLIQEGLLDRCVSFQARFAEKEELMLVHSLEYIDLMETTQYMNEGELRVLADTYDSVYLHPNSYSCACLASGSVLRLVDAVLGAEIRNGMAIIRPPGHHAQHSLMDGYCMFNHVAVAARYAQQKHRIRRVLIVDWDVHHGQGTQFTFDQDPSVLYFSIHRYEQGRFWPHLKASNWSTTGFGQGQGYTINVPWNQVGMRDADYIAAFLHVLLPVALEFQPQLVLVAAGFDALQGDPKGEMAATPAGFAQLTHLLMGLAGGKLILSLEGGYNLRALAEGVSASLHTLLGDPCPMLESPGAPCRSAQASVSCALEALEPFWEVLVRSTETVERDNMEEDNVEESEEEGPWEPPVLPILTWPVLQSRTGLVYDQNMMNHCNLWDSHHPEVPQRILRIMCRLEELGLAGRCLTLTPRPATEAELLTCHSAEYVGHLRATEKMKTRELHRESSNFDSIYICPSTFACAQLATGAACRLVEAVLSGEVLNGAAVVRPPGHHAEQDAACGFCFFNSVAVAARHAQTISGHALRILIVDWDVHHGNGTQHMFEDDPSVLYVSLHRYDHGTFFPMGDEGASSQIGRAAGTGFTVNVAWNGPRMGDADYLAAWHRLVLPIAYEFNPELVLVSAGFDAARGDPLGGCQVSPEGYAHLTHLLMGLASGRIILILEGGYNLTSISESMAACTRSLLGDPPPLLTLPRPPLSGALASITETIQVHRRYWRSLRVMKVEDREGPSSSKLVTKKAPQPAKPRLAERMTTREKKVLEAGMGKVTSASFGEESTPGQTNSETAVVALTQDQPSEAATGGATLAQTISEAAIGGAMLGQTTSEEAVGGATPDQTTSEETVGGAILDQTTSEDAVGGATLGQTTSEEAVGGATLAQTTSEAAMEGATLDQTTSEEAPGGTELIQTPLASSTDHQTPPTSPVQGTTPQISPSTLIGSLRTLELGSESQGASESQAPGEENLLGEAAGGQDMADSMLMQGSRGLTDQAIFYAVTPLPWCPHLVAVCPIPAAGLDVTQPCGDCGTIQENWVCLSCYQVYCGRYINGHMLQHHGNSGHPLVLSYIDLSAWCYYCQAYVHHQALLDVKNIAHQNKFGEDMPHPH
Assay: HDAC6 Enzyme Assay
Type: biochemical
Method in brief: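 Deacetylated product quantified after trypsin digestion as released AMC (340/460 nm), following a 1 h, 30 °C reaction of human HDAC6 with Ac-RGK(Ac)-AMC peptide, quenched by trichostatin A. IC50 derived from DMSO-normalized curves.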

[1] = purified human HDAC6, substrate Ac-Arg-Gly-Lys(Ac)-AMC, 1 hour at 30° C., reported as bins
[2] = bin: greater than 500 nM and less than 1 μM (lower bound in nM, upper bound in μM)

IC50 [1] [nM] | SMILES | also measured
 | CC(C)C(NC(=O)Cc1cc(C(F)(F)F)cc(C(F)(F)F)c1)c1ccc(C(=O)NO)cc1 (centres unmarked) [Compound I-250, 4-[1-({[3,5-bis(trifluoromethyl)phenyl]acetyl}amino)-2-methylpropyl]-N-hydroxybenzamide] | IC50 (bin: greater than 1 μM): > 1000 nM
100 to 500 | Cc1cccc(CNC(=O)NC(C)c2ccc(C(=O)NO)cc2)c1 (centres unmarked) [Compound I-316, N-hydroxy-4-[1-({[(3-methylbenzyl)amino]carbonyl}amino)ethyl]benzamide] | 
100 to 500 | Cc1nc(-c2ccccc2)ncc1C(=O)NC(c1ccc(C(=O)NO)cc1)C(C)C (centres unmarked) [Compound I-17, N-(1-{4-[(hydroxyamino)carbonyl]phenyl}-2-methylpropyl)-4-methyl-2-phenylpyrimidine-5-carboxamide] | 
100 to 500 | CC(NC(=O)Nc1cc(Cl)cc(Cl)c1)c1ccc(C(=O)NO)cc1 (centres unmarked) [Compound I-388, 4-[1-({[(3,5-dichlorophenyl)amino]carbonyl}amino)ethyl]-N-hydroxybenzamide] | 
100 to 500 | CC(C)(C)NC(=O)N[C@H](c1ccc(C(=O)NO)cc1)C(F)(F)F [Compound I-290, 4-((1R)-1-{[(tert-butylamino)carbonyl]amino}-2,2,2-trifluoroethyl)-N-hydroxybenzamide] | 
100 to 500 | Cc1ccccc1CNC(=O)NC(C)c1ccc(C(=O)NO)cc1 (centres unmarked) [Compound I-76, N-hydroxy-4-[1-({[(2-methylbenzyl)amino]carbonyl}amino)ethyl]benzamide] | 
< 100 | CC(C)[C@@H](NC(=O)Nc1cccc2ccccc12)c1ccc(C(=O)NO)cc1 [Compound I-524, N-hydroxy-4-((1R)-2-methyl-1-{[(1-naphthylamino)carbonyl]amino}propyl)benzamide] | 
< 100 | CC(C)C(NC(=O)c1ccc(-c2ccccc2)cc1)c1ccc(C(=O)NO)cc1 (centres unmarked) [Compound I-11, N-(1-{4-[(hydroxyamino)carbonyl]phenyl}-2-methylpropyl)biphenyl-4-carboxamide] | 
 | Cc1cc(C(=O)NO)ccc1C(C)NC(=O)C(C)(C)C (centres unmarked) [Compound I-490, 4-{1-[(2,2-dimethylpropanoyl)amino]ethyl}-N-hydroxy-3-methylbenzamide] | IC50 (bin: greater than 1 μM): > 1000 nM
< 100 | CC(NC(=O)c1ccccc1)c1ccc(C(=O)NO)cc1 (centres unmarked) [Compound I-385, 4-[1-(benzoylamino)ethyl]-N-hydroxybenzamide] | 
< 100 | Cc1c(C(=O)N[C@H](C)c2ccc(C(=O)NO)cc2)sc2ccccc12 [Compound I-12, N-((1R)-1-{4-[(hydroxyamino)carbonyl]phenyl}ethyl)-3-methyl-1-benzothiophene-2-carboxamide] | 
 | CC(NC(=O)c1cccc(S(C)(=O)=O)c1)c1cccc(C(=O)NO)c1 (centres unmarked) [Compound I-199, N-(1-{3-[(hydroxyamino)carbonyl]phenyl}ethyl)-3-(methylsulfonyl)benzamide] | IC50 [2]: 500 to 1000 nM
 | Cc1c(C(=O)NC(c2cccc(C(=O)NO)c2)C(C)C)oc2ccccc12 (centres unmarked) [Compound I-93, N-(1-{3-[(hydroxyamino)carbonyl]phenyl}-2-methylpropyl)-3-methyl-1-benzofuran-2-carboxamide] | IC50 (bin: greater than 1 μM): > 1000 nM
100 to 500 | CC(C)(C)C(NC(=O)c1cnccn1)c1ccc(C(=O)NO)cc1 (centres unmarked) [Compound I-87, N-(1-{4-[(hydroxyamino)carbonyl]phenyl}-2,2-dimethylpropyl)pyrazine-2-carboxamide] | 
 | Cc1oc(-c2ccccc2)nc1CC(=O)NC(C)c1cccc(C(=O)NO)c1 (centres unmarked) [Compound I-234, N-hydroxy-3-(1-{[(5-methyl-2-phenyl-1,3-oxazol-4-yl)acetyl]amino}ethyl)benzamide] | IC50 (bin: greater than 1 μM): > 1000 nM
100 to 500 | CCS(=O)(=O)NC(C)c1ccc(C(=O)NO)cc1 (centres unmarked) [Compound I-1, 4-{1-[(ethylsulfonyl)amino]ethyl}-N-hydroxybenzamide] | 
 | C[C@H](NC(=O)c1ccc(-c2ccccc2)cc1)c1cccc(C(=O)NO)c1 [Compound I-393, N-((1S)-1-{3-[(hydroxyamino)carbonyl]phenyl}ethyl)biphenyl-4-carboxamide] | IC50 [2]: 500 to 1000 nM
